# Measurements reported in the supplement of paper PMC11208160.
# Test: recombinant barcode read abundance after kanamycin selection (control-corrected) (log10(CPM+1)); higher = more efficient recombination; sequences stand for … in AGTGCAGAGAAAATCGGCCAGTTTTCTCTGCCTGCAGTCCGCATGCCGT…AGATTTATGCAGCGGACTGCCTTTCTCCCAAAGTGATAAACCGGACAGTATCATGGACCGGTTTTCCCGGTAATCCGTATTTGCAAGGTTGGTTTCACT; site = the 11-nt target
# Outline: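 Oligos holding a promoter, target, barcode and the J23119-driven first 104 bases of the bridge RNA were Gibson-cloned into a vector that supplied the other 73 bp plus a T7-inducible recombinase. This library was co-electroporated with a donor plasmid into E. coli. Two replicates went on chloramphenicol/ampicillin LB agar (control) and two on chloramphenicol/ampicillin/kanamycin with 0.1 mM IPTG. Recombination efficiency is read from averaged, control-corrected barcode counts per million at recombinant junctions, reported as log10(CPM+1).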
# 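Note: IS621 recombinase and bridge RNA in Escherichia coli cells.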
row,Sequence,recombinant barcode read abundance (log10)
1,TTAGTTCCTTGGGTTCTAACCTGTTGCCT (site TTAGTGCCTAG),0
2,TTAGTTCCTTGGGTTCTAACCTGTTGCCT (site TTAGTTCCTAG),0.634
3,TTATAAGCTTGGGTTCTAACCTGTTGCCA (site GTATGAGCTTG),0.0336
4,TTATAAGCTTGGGTTCTAACCTGTTGCCA (site TTATAAGCTTG),0.269
5,TTATTCACTTGGGTTCTAACCTGTTGCCT (site TCATTGACTAG),0.0352
6,TTATTCACTTGGGTTCTAACCTGTTGCCT (site TTATTCACTAG),1.48
7,TTCAAGTCTTGGGTTCTAACCTGTTGCCT (site TTCAAGACTAG),0.102
8,TTCAAGTCTTGGGTTCTAACCTGTTGCCT (site TTCAAGCCTAG),0.198
9,TTCAAGTCTTGGGTTCTAACCTGTTGCCT (site TTCAAGGCTAG),0.0708
10,TTCAAGTCTTGGGTTCTAACCTGTTGCCT (site TTCAAGTCTAG),0.33
11,TTCACGTCTTGGGTTCTAACCTGTTGCCT (site TTCACGTCTAG),0.202
12,TTCACGTCTTGGGTTCTAACCTGTTGCCT (site TTCATGTCTAG),0.0406
13,TTCAGACCTTGGGTTCTAACCTGTTGCCT (site AGGTACACTGT),0.0824
14,TTCAGACCTTGGGTTCTAACCTGTTGCCT (site TTCAGACCTAG),0.912
15,TTCCAAACTTGGGTTCTAACCTGTTGCGG (site TTCCAAACTCC),1.31
16,TTCCAAACTTGGGTTCTAACCTGTTGCGG (site TTCCACACTCC),0.193
17,TTCCTATCTTGGGTTCTAACCTGTTGCCT (site TACCTATCTAG),0.221
18,TTCCTATCTTGGGTTCTAACCTGTTGCCT (site TCCCTATCTAG),0.071
19,TTCCTATCTTGGGTTCTAACCTGTTGCCT (site TGCCTATCTAG),0.0749
20,TTCCTATCTTGGGTTCTAACCTGTTGCCT (site TTCCTATCTAG),0.354
21,TTCGAGTCTTGGGTTCTAACCTGTTGCGG (site TGCGAGTCTAC),0.0798
22,TTCGAGTCTTGGGTTCTAACCTGTTGCGG (site TTCGAGTCTCC),1.91

row,Sequence,recombinant barcode read abundance (log10)
1,TTCGCGCCTTGGGTTCTAACCTGTTGCCT (site TTCACGCCTAG),0.0251
2,TTCGCGCCTTGGGTTCTAACCTGTTGCCT (site TTCCCGCCTAG),0.144
3,TTCGCGCCTTGGGTTCTAACCTGTTGCCT (site TTCGCGCCTAG),0.134
4,TTCGCGCCTTGGGTTCTAACCTGTTGCCT (site TTCTCGCCTAG),0.176
5,TTCGGGCCTTGGGTTCTAACCTGTTGCCT (site ATCGGGCCTAG),0.0878
6,TTCGGGCCTTGGGTTCTAACCTGTTGCCT (site CTCGGGCCTAG),0.0465
7,TTCGGGCCTTGGGTTCTAACCTGTTGCCT (site GTCGGGCCTAG),0.0582
8,TTCGGGCCTTGGGTTCTAACCTGTTGCCT (site TTCGGGCCTAG),0.169
9,TTCTAGTCTTGGGTTCTAACCTGTTGCTA (site ACAAGACCTAT),0.0562
10,TTCTAGTCTTGGGTTCTAACCTGTTGCTA (site TTCTAGTCTTA),0.416
11,TTCTGCGCTTGGGTTCTAACCTGTTGCCT (site TTCTGAGCTAG),0.0215
12,TTCTGCGCTTGGGTTCTAACCTGTTGCCT (site TTCTGCGCTAG),1.2
13,TTCTGCGCTTGGGTTCTAACCTGTTGCCT (site TTCTGGGCTAG),0.0626
14,TTCTGCGCTTGGGTTCTAACCTGTTGCCT (site TTCTGTGCTAG),0.191
15,TTCTGGGCTTGGGTTCTAACCTGTTGCCT (site TTCTGAGCTAG),0.172
16,TTCTGGGCTTGGGTTCTAACCTGTTGCCT (site TTCTGCGCTAG),0.0493
17,TTCTGGGCTTGGGTTCTAACCTGTTGCCT (site TTCTGGGCTAG),0
18,TTCTGGGCTTGGGTTCTAACCTGTTGCCT (site TTCTGTGCTAG),0.137
19,TTGAAACCTTGGGTTCTAACCTGTTGCCT (site GACGCCTCTGC),0.0146
20,TTGAAACCTTGGGTTCTAACCTGTTGCCT (site TTGAAACCTAG),1.04
21,TTGAGGCCTTGGGTTCTAACCTGTTGCCT (site ATGAGGCCTAG),0.059
22,TTGAGGCCTTGGGTTCTAACCTGTTGCCT (site CTGAGGCCTAG),0.0268

row,Sequence,recombinant barcode read abundance (log10)
1,TTGAGGCCTTGGGTTCTAACCTGTTGCCT (site GTGAGGCCTAG),0.0327
2,TTGAGGCCTTGGGTTCTAACCTGTTGCCT (site TTGAGGCCTAG),0.0305
3,TTGAGTCCTTGGGTTCTAACCTGTTGCCT (site TTGAGTCCTAG),1.04
4,TTGAGTCCTTGGGTTCTAACCTGTTGCCT (site TTGGGTCCTAC),0.319
5,TTGATAGCTTGGGTTCTAACCTGTTGCTA (site ACCGCGTCTAT),0.174
6,TTGATAGCTTGGGTTCTAACCTGTTGCTA (site TTGATAGCTTA),0.203
7,TTGCAAACTTGGGTTCTAACCTGTTGCCT (site TTGCAAACTAG),0.501
8,TTGCAAACTTGGGTTCTAACCTGTTGCCT (site TTGCCAACTAG),0.0256
9,TTGCAAACTTGGGTTCTAACCTGTTGCCT (site TTGCGAACTAG),0.0337
10,TTGCAAACTTGGGTTCTAACCTGTTGCCT (site TTGCTAACTAG),0.0349
11,TTGCGAACTTGGGTTCTAACCTGTTGCAG (site GACGCGGCTAG),0.0589
12,TTGCGAACTTGGGTTCTAACCTGTTGCAG (site TTGCGAACTCT),0.455
13,TTGCGAACTTGGGTTCTAACCTGTTGCCT (site TTGCAAACTAG),0.0904
14,TTGCGAACTTGGGTTCTAACCTGTTGCCT (site TTGCCAACTAG),0.269
15,TTGCGAACTTGGGTTCTAACCTGTTGCCT (site TTGCGAACTAG),0.868
16,TTGCGAACTTGGGTTCTAACCTGTTGCCT (site TTGCTAACTAG),0.0519
17,TTGCTAACTTGGGTTCTAACCTGTTGCCT (site TTGCAAACTAG),0.0817
18,TTGCTAACTTGGGTTCTAACCTGTTGCCT (site TTGCCAACTAG),0.0109
19,TTGCTAACTTGGGTTCTAACCTGTTGCCT (site TTGCGAACTAG),0.0431
20,TTGCTAACTTGGGTTCTAACCTGTTGCCT (site TTGCTAACTAG),0.802
21,TTGGATACTTGGGTTCTAACCTGTTGCCA (site CATCTACCTCC),0.103
22,TTGGATACTTGGGTTCTAACCTGTTGCCA (site TTGGATACTTG),1.04

row,Sequence,recombinant barcode read abundance (log10)
1,TTGGCCACTTGGGTTCTAACCTGTTGCCT (site TTGGACACTAG),0.0972
2,TTGGCCACTTGGGTTCTAACCTGTTGCCT (site TTGGCCACTAG),1.08
3,TTGGCCACTTGGGTTCTAACCTGTTGCCT (site TTGGGCACTAG),0.121
4,TTGGCCACTTGGGTTCTAACCTGTTGCCT (site TTGGTCACTAG),0.0232
5,TTGGCCGCTTGGGTTCTAACCTGTTGCCT (site TTGGACGCTAG),0.109
6,TTGGCCGCTTGGGTTCTAACCTGTTGCCT (site TTGGCCGCTAG),1.65
7,TTGGCCGCTTGGGTTCTAACCTGTTGCCT (site TTGGGCGCTAG),0.374
8,TTGGCCGCTTGGGTTCTAACCTGTTGCCT (site TTGGTCGCTAG),0.148
9,TTGGGGTCTTGGGTTCTAACCTGTTGCCT (site GTAGGGTCTAG),0.155
10,TTGGGGTCTTGGGTTCTAACCTGTTGCCT (site TTGGGGTCTAG),1.65
11,TTGGGTCCTTGGGTTCTAACCTGTTGCGT (site TTGAGTCCTAG),0.15
12,TTGGGTCCTTGGGTTCTAACCTGTTGCGT (site TTGGGTCCTAC),3.32
13,TTGGTCACTTGGGTTCTAACCTGTTGCCA (site GGAAGGCCTAA),0.0841
14,TTGGTCACTTGGGTTCTAACCTGTTGCCA (site TTGGTCACTTG),0.525
15,TTGGTCCCTTGGGTTCTAACCTGTTGCCT (site TTGGTACCTAG),0.565
16,TTGGTCCCTTGGGTTCTAACCTGTTGCCT (site TTGGTCCCTAG),2.93
17,TTGGTCCCTTGGGTTCTAACCTGTTGCCT (site TTGGTGCCTAG),0.0514
18,TTGGTCCCTTGGGTTCTAACCTGTTGCCT (site TTGGTTCCTAG),0.131
19,TTGTATACTTGGGTTCTAACCTGTTGCCT (site GTGTCTACTAG),0.129
20,TTGTATACTTGGGTTCTAACCTGTTGCCT (site TTGTATACTAG),0.612
